Reference: US11866695B2, “Methods and systems and related compositions for mixtures separation with a solid matrix” (CALIFORNIA INSTITUTE OF TECHNOLOGY, priority 2019, dated 2024)

Legend:
[1] = test system: LAMP spiked with 5×104 copies λ phage DNA; assay: LAMP reaction inhibition by dilutions of NA extraction kit buffers; format: biochemical; details: for Avg TTP: 9 replicates, non-detects assigned 46.7 min
Protocol: LAMP primers (Integrated DNA Technologies (IDT), Coralville, Iowa, USA) were designed, ordered, and added at NEB's recommended concentrations of […] FIP/BIP, 0.2μM F3/B3, and […] LoopF/B.
Each 96-well plate was sealed and briefly spun. […] Time-to-positive (TTP) was determined when the software's automated baseline corrected fluorescence reached 1000 RFU.
Confidence intervals were calculated assuming the populations to be normally distributed and using a t statistic. For buffer inhibition experiments, statistical analysis was performed by a 1-tailed unequal variance t-test (N=9) comparing the water condition (control) to each buffer concentration (H1: the mean is delayed). For the subsequent experiments, a 2-tailed unequal variance t-test (H1: the means are different) was used. […] Although this approach introduces some bias into the analysis, it is believed this is the best representation for handling non-detects (other alternatives include excluding the non-detects or assigning non-detect values to the average of those that amplified).
These two commercial kits in particular were chosen because they both utilize minimal protocols (lysis, wash, elute) with no added steps (e.g. bacterial pellet spins, proteinase K, lysozyme, DNase/RNase, filtration, etc.). Specifically, an experiment was conducted to identify the concentration at which each buffer inhibits qPCR and LAMP.

λ phage DNA = assay: Zymo Quick-Viral DNA/RNA kit extraction with additional TPW, qPCR with 2.2× diluted eluent; format: biochemical
Protocol: qPCR reactions contained 1× Bio-Rad SsoFast Supermix (1725201, Bio-Rad), PCR primers (IDT) at […] each, and were supplemented with nuclease-free water up to 10 μL. Each 96-well plate (thin-wall clear well, HSP9641, Bio-Rad) was sealed (Microseal B, MSB1001, Bio-Rad) and briefly spun in a Mini Plate Spinner Centrifuge (14-100-141, Fisher Scientific). Heating and real-time imaging were performed on the Bio-Rad CFX-96 Touch Real-Time PCR Detection System by heating to 95° C. for 5 min, cycling 40 times between 95° C. for 15 s, 60° C. for 15 s, and 72° C. for 20 s, and taking a melt-curve analysis. For the E. coli DNA dilution experiment, qPCR was run for 60 cycles. Fluorescence readings were taken at the end of each extension step. Quantification cycle (Cq) was determined when the software's automated baseline corrected fluorescence reached 200 RFU.
Three different silica-column kits were tested, including: Zymo ZR Viral DNA/RNA Kit (outdated protocol, D7021), Zymo Quick-DNA/RNA Kit (updated protocol, D7021), and the QIAquick PCR Purification Kit (28104, Qiagen). For all silica-column kits, fresh collection tubes were used after each spin and centrifugation speeds were set to 16,000×g. Centrifugation was performed on either an Eppendorf 5415D centrifuge (Eppendorf, Hauppauge, N.Y., USA) or a Thermo Fisher Scientific AccuSpin Micro 17R centrifuge (13-100-676). It was noted that the QIAquick protocol calls for 17,900×g, but instead was run at 16,000×g which was the max speed for the Eppendorf 5415D. For both Zymo kits, 750 μL lysed sample was prepared by mixing 125 μL sample with 125 μL Zymo 2×DNA/RNA Shield and 500 μL Viral DNA/RNA Buffer. For the Zymo ZR Viral DNA/RNA kit, 750 μL lysed sample was centrifuge for 1 min, 500 μL Zymo Viral Wash Buffer was centrifuged for 2 min, and 50 μL nuclease-free water was centrifuged for 30 s into a clean 1.5 mL tube. Optionally, either a dry spin or 300 μL TPW was centrifuged for 2 min in between the Viral Wash Buffer and elution steps. […] For the QIAquick PCR Purification Kit, 125 μL sample was mixed with 625 μL Buffer PB without indicator. 750 μL lysed sample was centrifuged for 30 s, followed by 750 μL Buffer PE for 30 s, a dry spin for 1 min, and 50 μL nuclease-free water for 1 min. Optionally, the dry spin was skipped or the dry spin was replaced with a 300 μL TPW and centrifuged for 1 min.
Of our TPW candidates, 1-undecanol was selected for further evaluation because (i) it was non-inhibitory for qPCR and LAMP reactions and (ii) as an alcohol, 1-undecanol may function similarly to ethanol- or isopropanol-based washes. In these experiments (testing criteria 1b and 2), a commercially purified λ phage DNA sample was first diluted to 2.5×10^6 copies and ran an NA extraction using the Zymo Quick-DNA/RNA Viral Kit. The experimental procedure either followed the manufacturer protocol or added an additional 300 μL 1-undecanol wash in between the Viral Wash Buffer and elution step. Using the manufacturer's protocol, the resulting eluent is approximately 49 μL, but with the added TPW the resulting eluent is approximately 48 μL aqueous phase and ˜1-2 μL 1-undecanol phase. To emphasize any potential inhibitory effects, a low dilution of eluent was used. For qPCR, a 2.2×dilution was achieved by adding 4.5 μL of eluent, 0.5 μL primers, and 5 μL qPCR reaction mix. For LAMP, a 2×dilution was achieved by adding 5 μL eluent, 0.5 μL primers, and 4.5 μL reaction mix. […] The ˜1-2 μL TPW separates from the aqueous phase and adheres to the walls of the tube, making it is easy to use a pipette to capture just the eluent.

Row | SMILES | Avg TTP ([1]; 0.03% buffer in LAMP) [min] | ΔTTP ([1]; 0.03% buffer vs water condition (0%)) [min] | Avg TTP ([1]; 0.1% buffer in LAMP) [min] | ΔTTP ([1]; 0.1% buffer vs water condition (0%)) [min] | Avg TTP ([1]; 0.32% buffer in LAMP) [min] | ΔTTP ([1]; 0.32% buffer vs water condition (0%)) [min] | Avg TTP ([1]; 1% buffer in LAMP) [min] | ΔTTP ([1]; 1% buffer vs water condition (0%)) [min] | Avg TTP ([1]; 3.2% buffer in LAMP) [min] | ΔTTP ([1]; 3.2% buffer vs water condition (0%)) [min] | Avg TTP ([1]; 10% buffer in LAMP) [min] | ΔTTP ([1]; 10% buffer vs water condition (0%)) [min] | Cq (λ phage DNA; 2.2× eluent dilution, 3 columns, 9 samples) [cycles] | qPCR reactions amplified (λ phage DNA; 2.2× eluent dilution, amplified/total) | average Cq (λ phage DNA; 27 reactions (9 columns)) [cycles] | wells with Cq between 18-22 cycles (λ phage DNA; 27 reactions (9 columns)) | wells with a delayed Cq (λ phage DNA; 27 reactions (9 columns))
1 | CCO [Ethanol, ethanol] | 6.4 | 0.1 | 6.5 | 0.1 | 6.6 | 0.2 | 6.9 | 0.5 | 9.7 | 3.3 | 46.7 | 40.3 | – | – | – | – | –
2 | CCCCCCCCCCCO [1-undecanol] | – | – | – | – | – | – | – | – | – | – | – | – | 18.46±0.22 | all reactions amplified | 19.7±2.5 | 25/27 | 2/27
